Assay results from patent publication US20220022513A1 (INTERNATIONAL FLAVORS & FRAGRANCES INC., priority 2018, published 2022).

What was measured:
Format in all cases: in vivo
[1] = Descriptive sensory evaluation (taste modulation) of sebacic acid in different applications
Description: Descriptive sensory evaluations were carried out using different amounts of sebacic acid in different applications.

[2] = Sensory evaluation of sebacic acid and traumatic acid in sweetened milk; conditions: for sweetness and mouthfeel of sweetened milk: 2 ppm (each) in sweetened milk; for Taste Evaluation: 2 ppm (each) in sweetened milk (2% fat milk with 2% sucrose), versus base
Description: Sweetened milk (2% fat milk with 2% sucrose) was prepared and used as a base solution (“base”).

[3] = Sensory evaluation of sebacic acid at different amounts in sugar water
Description: Sugar water (4% sucrose in drinking water) was prepared and used as a base solution.

| SMILES | Taste Evaluation ([1]; 7.5 ppm in 3% Sugar-Sweetened Full Fat Milk) | Taste Evaluation ([1]; 7.5 ppm in Mixed Berry Yogurt Smoothie (1% Fat, 9% Sugar, 3% Protein)) | Taste Evaluation ([1]; 15 ppm in Strawberry Flavored Yogurt (5% Sugar, 0.4% Fat, 8.7 Grams Protein)) | Taste Evaluation ([1]; 40 ppm in 3% Sugar + 0.05% Citric Acid Water Solution) | Taste Evaluation ([1]; 40 ppm in Water, compared to same application without sebacic acid) | sweetness and mouthfeel of sweetened milk [2] | Taste Evaluation [2] | Taste Evaluation ([3]; 0.02 ppm in sugar water (4% sucrose in drinking water)) | Taste Evaluation ([3]; 1000 ppm in sugar water (4% sucrose in drinking water)) |
| --- | --- | --- | --- | --- | --- | --- | --- | --- | --- |
| O=C(O)CCCCCCCCC(=O)O [Sebacic acid, sebacic acid] | Increases fatty perception | Cuts sour end, increased | Sweet up front, more | Fatty and oily | Fatty and oily | increased sweetness and mouthfeel | Sweeter and more mouthfeel | Slight sweet and mouthfeel | Strong sweet and mouthfeel |
| O=C(O)/C=C/CCCCCCCCC(=O)O [Traumatic Acid, traumatic acid] | – | – | – | – | – | increased sweetness and mouthfeel | Sweeter and more mouthfeel | – | – |
